Like-named read-outs stand apart in the source and are kept apart here.
Columns and labels:
Factor XIa = Factor XIa (Homo sapiens, UniProt P03951); assay: Factor XIa inhibition assay (FLINT) utilizing a fluorophore-quencher pair peptide substrate 5Fam-[…]-K5Tamra; type: biochemical; conditions: kinetic (KIN) reads, read-out: FXIa KIN Inh IC50
Summary of the method: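 FXIa was preincubated with compound for 30 min at room temperature in Tris pH 7.5 buffer containing CaCl2, BSA and CHAPS, then reacted with 15 μM quenched 5Fam/Tamra peptide substrate. Fluorescence (485/520 nm) was read kinetically every 5 min for 30 min.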

human plasma kallikrein = human plasma kallikrein (Homo sapiens, UniProt P03952); assay: Kallikrein inhibition assay (FLINT) utilizing a quenched AMC peptide substrate Z-Gly-Pro-Arg-AMC; type: biochemical; conditions: kinetic (KIN) reads, read-out: Kallikrein KIN Inh IC50
human plasma kallikrein, sequence (P03952 391-638 limits assumed): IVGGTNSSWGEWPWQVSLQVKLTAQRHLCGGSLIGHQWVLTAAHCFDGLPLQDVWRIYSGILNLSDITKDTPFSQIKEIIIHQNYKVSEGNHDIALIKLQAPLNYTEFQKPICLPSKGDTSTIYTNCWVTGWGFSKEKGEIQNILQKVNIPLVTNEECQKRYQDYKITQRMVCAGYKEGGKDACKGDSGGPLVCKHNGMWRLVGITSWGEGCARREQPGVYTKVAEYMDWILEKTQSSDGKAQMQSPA
human plasma kallikrein, sequence (P03952 20-390 partner limits assumed): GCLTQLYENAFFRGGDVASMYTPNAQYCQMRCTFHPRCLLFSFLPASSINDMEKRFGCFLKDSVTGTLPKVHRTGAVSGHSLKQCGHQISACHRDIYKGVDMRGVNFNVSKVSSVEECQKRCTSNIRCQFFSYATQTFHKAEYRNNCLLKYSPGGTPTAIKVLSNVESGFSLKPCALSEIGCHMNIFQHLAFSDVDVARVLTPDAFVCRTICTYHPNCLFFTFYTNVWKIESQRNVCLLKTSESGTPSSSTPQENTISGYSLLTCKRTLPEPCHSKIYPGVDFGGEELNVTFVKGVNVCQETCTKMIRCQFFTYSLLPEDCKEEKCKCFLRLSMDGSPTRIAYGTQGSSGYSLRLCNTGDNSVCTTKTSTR
Summary of the method: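 Human plasma kallikrein (2 nM final) pre-incubated 30 min with compound (11-point 3-fold series, top 1 μM, 2% DMSO), then 50 μM Z-Gly-Pro-Arg-AMC added. Buffer 50 mM Tris pH 7.5, 100 mM NaCl, 5 mM CaCl2, BSA, CHAPS. AMC fluorescence (340/440 nm) read kinetically over 30 min at room temperature, IC50 by 4-parameter logistic fit.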

Factor XIa, sequence (P03951 388-625 limits assumed): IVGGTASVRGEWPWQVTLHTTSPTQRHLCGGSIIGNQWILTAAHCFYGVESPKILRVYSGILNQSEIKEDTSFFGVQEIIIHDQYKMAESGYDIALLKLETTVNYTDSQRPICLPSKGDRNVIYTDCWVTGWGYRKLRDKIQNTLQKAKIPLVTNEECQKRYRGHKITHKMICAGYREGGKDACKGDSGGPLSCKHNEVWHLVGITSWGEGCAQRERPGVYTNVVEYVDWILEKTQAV
Factor XIa, sequence (P03951 19-387 partner limits assumed): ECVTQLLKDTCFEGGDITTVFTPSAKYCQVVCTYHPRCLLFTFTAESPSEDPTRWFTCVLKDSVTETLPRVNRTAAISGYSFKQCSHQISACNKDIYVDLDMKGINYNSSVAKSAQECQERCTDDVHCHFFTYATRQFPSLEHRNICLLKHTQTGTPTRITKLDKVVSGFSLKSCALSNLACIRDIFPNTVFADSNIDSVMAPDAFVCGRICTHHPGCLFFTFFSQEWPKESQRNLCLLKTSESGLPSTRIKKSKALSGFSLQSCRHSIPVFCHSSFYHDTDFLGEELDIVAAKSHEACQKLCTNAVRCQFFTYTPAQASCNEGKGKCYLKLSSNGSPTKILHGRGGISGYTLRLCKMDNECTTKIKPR

Cc1c(-c2cnc([C@H]3C[C@H](C)c4cc(-c5c(-n6cnnn6)ccc(Cl)c5F)cc(=O)n43)[nH]2)ccnc1C#N (relative stereo) [Example 31, 4-(2-((1S*,3R*)-7-(3-Chloro-2-fluoro-6-(1H-tetrazol-1-yl)phenyl)-1-methyl-5-oxo-1,2,3,5-tetrahydroindolizin-3-yl)-1H-imidazol-5-yl)-3-methylpicolinonitrile]
IC50 (Factor XIa; values in nM): 250 nM | IC50 (human plasma kallikrein; values in nM): 635 nM

C[C@@H]1C[C@@H](c2ncc(-c3cn[nH]c3)[nH]2)n2c1nc(-c1c(-n3cnnn3)ccc(Cl)c1F)cc2=O (stereo in doubt) [Example 111, (6*S,8*R)-6-(5-(1H-Pyrazol-4-yl)-1H-imidazol-2-yl)-2-(3-chloro-2-fluoro-6-(1H-tetrazol-1-yl)phenyl)-8-methyl-7,8-dihydropyrrolo[1,2-a]pyrimidin-4(6H)-one]
IC50 (Factor XIa; values in nM): 22.6 nM | IC50 (human plasma kallikrein; values in nM): 146 nM

C[C@H]1C[C@@H](c2ncc(-c3ccc(=O)[nH]c3)[nH]2)n2c1cc(-c1c(-n3cnnn3)ccc(Cl)c1F)cc2=O [Example 16, (1S,3S)-7-(3-Chloro-2-fluoro-6-(1H-tetrazol-1-yl)phenyl)-1-methyl-3-(5-(6-oxo-1,6-dihydropyridin-3-yl)-1H-imidazol-2-yl)-2,3-dihydroindolizin-5(1H)-one]
IC50 (Factor XIa; values in nM): 78.1 nM | IC50 (human plasma kallikrein; values in nM): 447 nM

C[C@@H]1C[C@H](c2ncc(-c3ccc(N)nc3F)[nH]2)n2c1nc(-c1c(-n3cnnn3)ccc(Cl)c1F)cc2=O (stereo in doubt) [Example 138, (6R*,8R*)-6-(5-(6-Amino-2-fluoropyridin-3-yl)-1H-imidazol-2-yl)-2-(3-chloro-2-fluoro-6-(1H-tetrazol-1-yl)phenyl)-8-methyl-7,8-dihydropyrrolo[1,2-a]pyrimidin-4(6H)-one]
IC50 (Factor XIa; values in nM): 258 nM | IC50 (human plasma kallikrein; unit μM): 4300 nM

C[C@@H]1C[C@@H](c2ncc(-c3ccc4c(=O)cc[nH]c4c3)[nH]2)n2c1nc(-c1c(-n3cnnn3)ccc(Cl)c1F)cc2=O (relative stereo) [Example 101, 7-(2-((6S,8R)-2-(3-Chloro-2-fluoro-6-(1H-tetrazol-1-yl)phenyl)-8-methyl-4-oxo-4,6,7,8-tetrahydropyrrolo[1,2-a]pyrimidin-6-yl)-1H-imidazol-5-yl)quinolin-4(1H)-one]
IC50 (Factor XIa; values in nM): 321 nM | IC50 (human plasma kallikrein; unit μM): 1300 nM

Cc1nc(N)c(F)cc1-c1cnc([C@@H]2C[C@H](C)c3nc(-c4c(-n5cnnn5)ccc(Cl)c4F)cc(=O)n32)[nH]1 (stereo in doubt) [Example 130, (6*S,8*S)-6-(5-(6-Amino-5-fluoro-2-methylpyridin-3-yl)-1H-imidazol-2-yl)-2-(3-chloro-2-fluoro-6-(1H-tetrazol-1-yl)phenyl)-8-methyl-7,8-dihydropyrrolo[1,2-a]pyrimidin-4(6H)-one]
IC50 (Factor XIa; unit μM): > 10000 nM | IC50 (human plasma kallikrein; unit μM): > 10000 nM

C[C@@H]1C[C@H](c2nc(-c3ncc(N)nc3Cl)c[nH]2)n2c1nc(-c1c(-n3cnnn3)ccc(Cl)c1F)cc2=O (single isomer, unassigned) [Example 94, (6*R,8R)-6-(4-(5-Amino-3-chloropyrazin-2-yl)-1H-imidazol-2-yl)-2-(3-chloro-2-fluoro-6-(1H-tetrazol-1-yl)phenyl)-8-methyl-7,8-dihydropyrrolo[1,2-a]pyrimidin-4(6H)-one]
IC50 (Factor XIa; values in nM): 1.2 nM | IC50 (human plasma kallikrein; values in nM): 12 nM

Cc1nc(N)sc1-c1cnc([C@@H]2C[C@H](C)c3cc(-c4c(-n5cnnn5)ccc(Cl)c4F)cc(=O)n32)[nH]1 [Example 26, (1S,3S)-3-(5-(2-Amino-4-methylthiazol-5-yl)-1H-imidazol-2-yl)-7-(3-chloro-2-fluoro-6-(1H-tetrazol-1-yl)phenyl)-1-methyl-2,3-dihydroindolizin-5(1H)-one]
IC50 (Factor XIa; values in nM): 22.6 nM | IC50 (human plasma kallikrein; unit μM): 1300 nM

C[C@@H]1C[C@@H](c2ncc(-c3ccnn3C)[nH]2)n2c1nc(-c1c(-n3cnnn3)ccc(Cl)c1F)cc2=O (relative stereo) [Example 145, (6S*,8R*)-2-(3-Chloro-2-fluoro-6-(1H-tetrazol-1-yl)phenyl)-8-methyl-6-(5-(1-methyl-1H-pyrazol-5-yl)-1H-imidazol-2-yl)-7,8-dihydropyrrolo[1,2-a]pyrimidin-4(6H)-one]
IC50 (Factor XIa; unit μM): > 10000 nM | IC50 (human plasma kallikrein; unit μM): > 10000 nM

Nc1ccc(-c2cnc([C@@H]3CC4(CC4)c4cc(-c5cc(Cl)ccc5-n5cnnn5)cc(=O)n43)[nH]2)c(F)n1 (single isomer, unassigned) [Example 4]
IC50 (Factor XIa; values in nM): > 100 nM | IC50 (human plasma kallikrein; unit μM): > 1000 nM

C[C@H]1C[C@H](c2ncc(-c3ncc(N)nc3C(F)F)[nH]2)n2c1nc(-c1c(-n3cnnn3)ccc(Cl)c1F)cc2=O (relative stereo) [Example 85, (6*R,8*S)-6-(5-(5-Amino-3-(difluoromethyl)pyrazin-2-yl)-1H-imidazol-2-yl)-2-(3-chloro-2-fluoro-6-(1H-tetrazol-1-yl)phenyl)-8-methyl-7,8-dihydropyrrolo[1,2-a]pyrimidin-4(6H)-one]
IC50 (Factor XIa; values in nM): 52 nM | IC50 (human plasma kallikrein; unit μM): > 1000 nM

C[C@H]1C[C@@H](c2ncc(-c3cnnn3C)[nH]2)n2c1cc(-c1c(-n3cnnn3)ccc(Cl)c1F)cc2=O [Example 28, (1S,3S)-7-(3-Chloro-2-fluoro-6-(1H-tetrazol-1-yl)phenyl)-1-methyl-3-(5-(1-methyl-1H-1,2,3-triazol-5-yl)-1H-Imidazol-2-yl)-2,3-dihydroindolizin-5(1H)-one]
IC50 (Factor XIa; values in nM): 311 nM | IC50 (human plasma kallikrein; unit μM): 6400 nM

Cc1nc(N)sc1-c1cnc([C@H]2CC3(CC3)c3nc(-c4c(-n5cnnn5)ccc(Cl)c4F)cc(=O)n32)[nH]1 [Example 132, (R)-6′-(5-(2-Amino-4-methylthiazol-5-yl)-1H-imidazol-2-yl)-2′-(3-chloro-2-fluoro-6-(1H-tetrazol-1-yl)phenyl)-6′,7′-dihydro-4′H-spiro[cyclopropane-1,8′-pyrrolo[1,2-a]pyrimidin]-4′-one]
IC50 (Factor XIa; unit μM): > 10000 nM | IC50 (human plasma kallikrein; unit μM): > 10000 nM

C[C@H]1C[C@@H](c2ncc(-c3ccc(N)nc3F)[nH]2)n2c1cc(-c1cc(Cl)ccc1-n1cnnn1)cc2=O [Example 29, (1S,3S)-3-[5-(6-amino-2-fluoro-3-pyridyl)-1H-imidazol-2-yl]-7-[5-chloro-2-(tetrazol-1-yl)phenyl]-1-methyl-2,3-dihydro-1H-indolizin-5-one]
IC50 (Factor XIa; values in nM): 0.5 nM | IC50 (human plasma kallikrein; values in nM): 39.5 nM

CC(C)(O)COc1nccc(-c2cnc(C3CC4(CC4)c4nc(-c5c(-n6cnnn6)ccc(Cl)c5F)cc(=O)n43)[nH]2)c1F (single isomer, unassigned) [Example 70, (R*)-2′-(3-Chloro-2-fluoro-6-(1H-tetrazol-1-yl)phenyl)-6′-(5-(3-fluoro-2-(2-hydroxy-2-methylpropoxy)pyridin-4-yl)-1H-imidazol-2-yl)-6′,7′-dihydro-4′H-spiro[cyclopropane-1,8′-pyrrolo[1,2-a]pyrimidin]-4′-one]
IC50 (Factor XIa; values in nM): 7.3 nM | IC50 (human plasma kallikrein; values in nM): 42.9 nM

C[C@@H]1C[C@@H](c2ncc(-c3ccc(N)nc3F)[nH]2)n2c1nc(-c1c(-n3cnnn3)ccc(Cl)c1F)cc2=O (relative stereo) [Example 137, (6S*,8R*)-6-(5-(6-Amino-2-fluoropyridin-3-yl)-1H-imidazol-2-yl)-2-(3-chloro-2-fluoro-6-(1H-tetrazol-1-yl)phenyl)-8-methyl-7,8-dihydropyrrolo[1,2-a]pyrimidin-4(6H)-one]
IC50 (Factor XIa; values in nM): 104 nM | IC50 (human plasma kallikrein; unit μM): 7200 nM

From patent US20230097157A1, “Bicyclic Pyridin-2-one and pyrimidin-4-one Derivatives Useful As a Factor XIa Inhibitors” (Janssen Pharmaceutica NV, priority 2021, published 2023)
